Test results taken from publication PMC6681416, “Novel Derivatives of Deoxycholic Acid Bearing Linear Aliphatic Diamine and Aminoalcohol Moieties and their Cyclic Analogs at the C3 Position: Synthesis and Evaluation of Their In Vitro Antitumor Potential” (Molecules, 2019).
Read-outs that look alike come from different tables or passages of the source.

Legend:
[1] = tested on: non-transformed human fibroblasts hFF3; parameters: method as in PMID 28688958, PMID 26037611, PMID 28887170; conditions: MTT, 24 h; values marked by asterisk; ref [21],[22],[23]; read-out: IC50 hFF3 (fibroblast); cited from earlier work
HepG2 cells [2] = tested on: HepG2 cells; parameters: method as in PMID 28688958, PMID 26037611, PMID 28887170; conditions: MTT, 24 h; values marked by asterisk; ref [21],[22],[23]; read-out: IC50 HepG2 (liver); cited from earlier work
RAW264.7 macrophages = experiment: MTT cytotoxicity assay, RAW264.7; format: cell-based, murine; conditions: for IC50: Mus musculus, RAW264.7, MTT, 24 h, read-out: IC50 RAW264.7 (macrophage); for Selectivity index RAW264: ratio IC50 hFF3 / IC50 RAW264.7
Text: (§1) According to our previous data and data published by other research groups, chemical transformations of bile acids can greatly improve their antitumor potential. Thus, as the first step of evaluation of the biological activities of our novel DCA derivatives we assessed their effects on tumor cell viability. The cytotoxicity of the compounds was investigated with respect to a panel of cultured cell lines, including human duodenal HuTu-80, hepatocellular HepG2, cervical KB-3-1 and lung A549 carcinomas as well as murine macrophage RAW264.7 and non-transformed human fibroblasts hFF3 by MTT assay.
(§2) Human duodenal carcinoma HuTu-80 cells, human hepatocellular carcinoma HepG2 cells, human cervical carcinoma KB-3-1 cells, human lung carcinoma A549 cells were obtained from the Russian Cell Culture Collection (Institute of Cytology, RAS, St. Petersburg, Russia). Non-transformed human fibroblasts hFF3 were kindly provided by Dr. Olga Koval (Institute of Chemical Biology and Fundamental Medicine, SB RAS, Novosibirsk, Russia). RAW264.7 macrophages were kindly provided by Prof. Dr. Dmitry Kuprash (Engelhardt Institute of Molecular Biology, RAS, Moscow, Russia). The cells were cultured in DMEM (Sigma-Aldrich Inc., St. Louis, MO, USA) supplemented with 10% (v/v) heat-inactivated fetal bovine serum (FBS) (BioloT, St. Petersburg, Russia), 100 U/mL penicillin (ICN Biomedicals Inc., Costa Mesa, CA, USA), 100 µg/mL streptomycin and 0.25 µg/mL amphotericin; additionally, in the case of RAW264.7 cells, concentration of glucose in the medium was increased up to 4.5 mg/mL. The cells were incubated at 37 °C in 5% CO2 and 95% air (hereafter referred to as standard conditions). DCA derivatives were dissolved in DMSO to yield stock solutions of 10 mmol/L and stored at −20 °C prior to use.
(§3) Cells were seeded in triplicate in 96-well plates at a density of 5 × 10^3 (HuTu-80, HepG2, KB-3-1, hFF3), 10^4 (A549) or 5 × 10^4 (RAW264.7) cells per well. Cells were incubated under standard conditions for 24 h and then they were treated with varying doses of investigated derivatives for subsequent 24 h. Then 10 µL of MTT solution (5 mg/mL) were added to each wells and cells were incubated for an additional 2 h under standard conditions. The crystals of formazan forming within live cells were solubilized with DMSO and the absorbance was measured in a Multiscan RC plate reader (Thermo LabSystems, Helsinki, Finland) at a test and reference wavelengths of 570 nm and 620 nm, respectively. […] To perform SAR analysis, hierarchical clustering of compounds based on their IC50 values was fulfilled with Euclidean distance by using the Morpheus tool (https://software.broadinstitute.org/morpheus/), a platform designed for visualization and analysis of data in a matrix format. Heatmap, containing compounds’ SI values, were constructed by using the Excel 2010 software (Microsoft, Redmond, WA, USA). In order to reveal whether ROS participate in the induction of cell death by compound 9, HuTu-80 cells cultured in 96-well plate were pretreated by NAC at 2 mM for 1 h. Thereafter, the medium was replaced by fresh medium with compound 9 at 8 µM and the cells were incubated with subsequent 24 h under standard conditions. After this time period, the curves of cytotoxicity of compound 9 in the presence or absence of NAC were compared.

HuTu-80 cells [3] = tested on: HuTu-80 cells; parameters: method as in PMID 28688958, PMID 26037611, PMID 28887170; conditions: MTT, 24 h; values marked by asterisk; ref [21],[22],[23]; read-out: IC50 HuTu-80 (duodenum); cited from earlier work
KB-3-1 cells [4] = tested on: KB-3-1 cells; parameters: method as in PMID 28688958, PMID 26037611, PMID 28887170; conditions: MTT, 24 h; values marked by asterisk; ref [21],[22],[23]; read-out: IC50 KB3-1 (cervix); cited from earlier work
[5] = tested on: NO synthesis by IFNγ-activated RAW264.7 cells; experiment: Inhibition of NO production by stimulated macrophages (Griess); format: cell-based, murine; conditions: Mus musculus, read-out: IC50NO
Procedure: RAW264.7 cells were seeded in triplicate in 96-well plates at a density of 5 × 10^4 cells/well and incubated under standard conditions for 24 h. The cells were treated with 20 ng/mL of murine recombinant IFNγ (GIBCO, Gaithersburg, MD, USA), with or without (control) compounds at various concentrations for 24 h. The level of NO production was evaluated by determining the nitrite concentration in culture medium with a Griess Reagent System (Promega, Madison, WI, USA). The IC50^NO value was calculated as the derivative concentration required to decrease NO production to 50% of the non-treated control.

[6] = tested on: panel of cultured cell lines (HuTu-80, HepG2, KB-3-1, A549, RAW264.7, hFF3); parameters: method as in PMID 28688958, PMID 26037611, PMID 28887170; conditions: MTT, 24 h; summary of Table 1 values marked by asterisk; ref [21],[22],[23]; read-out: IC50, range or lowest value over tested cell lines; cited from earlier work
HuTu-80 cells [7] = experiment: cells; format: cell-based; conditions: ratio IC50 hFF3 / IC50 HuTu-80
Text: as §1, §2, §3

A549 cells [8] = experiment: MTT cytotoxicity assay, A549; format: cell-based, human; conditions: ratio IC50 hFF3 / IC50 A549
Text: as §1, §2, §3

KB-3-1 cells [9] = experiment: MTT cytotoxicity assay, KB-3-1; format: cell-based, human; conditions: ratio IC50 hFF3 / IC50 KB-3-1
Text: as §1, §2, §3

A549 cells [10] = tested on: A549 cells; parameters: method as in PMID 28688958, PMID 26037611, PMID 28887170; conditions: MTT, 24 h; values marked by asterisk; ref [21],[22],[23]; read-out: IC50 A549 (lung); cited from earlier work
HepG2 cells [11] = experiment: MTT cytotoxicity assay, HepG2; format: cell-based, human; conditions: ratio IC50 hFF3 / IC50 HepG2
Text: as §1, §2, §3

Row | SMILES | IC50 [1] [µM] | IC50 (HepG2 cells [2]) [µM] | IC50 (RAW264.7 macrophages) [µM] | Selectivity index RAW264 (RAW264.7 macrophages) | IC50 (HuTu-80 cells [3]) [µM] | IC50 (KB-3-1 cells [4]) [µM] | IC50 ([5]; RAW264.7, 24 h) [µM] | IC50 [6] [µM] | Selectivity index HuTu-80 (HuTu-80 cells [7]) | Selectivity index A549 (A549 cells [8]) | Selectivity index KB-3-1 (KB-3-1 cells [9]) | IC50 (A549 cells [10]) [µM] | Selectivity index HepG-2 (HepG2 cells [11]) | IC50 ([5]; 50% reduction in NO synthesis by IFNγ-activated RAW264.7 cells, 24 h) [µM]
1 | COC(=O)CC[C@@H](C)[C@H]1CCC2[C@@H]3CC[C@@H]4C[C@@]5(CC[C@]4(C)C3CC(=O)[C@@]21C)CO5 (stereo partly drawn) [Compound 1, methyl 3β-oxirane-12-oxo-5β-cholan-24-oate] | 53.9 ± 3.3 | 43.5 ± 1.9 | > 100 | <0.5 | 17 ± 1.6 | 27.9 ± 2.5 | 16.4 ± 0.9 | ≥ 17 | 1.6 | – | – | – | – | –
2 | COC(=O)CC[C@@H](C)[C@H]1CCC2[C@@H]3CC[C@@H]4C[C@](O)(CNCCN(C)C)CC[C@]4(C)C3CC(=O)[C@@]21C (stereo partly drawn) [Compound 2] | 25.4 ± 2.2 | 8 ± 0.9 | 21.7 ± 0.87 | 1.2 | 7.1 ± 0.6 | 26.2 ± 0.8 | > 10 | 7.1 to 36 | 3.6 | 0.7 | 1 | 36 ± 0.7 | 3.2 | –
3 | COC(=O)CC[C@@H](C)[C@H]1CCC2[C@@H]3CC[C@@H]4C[C@](O)(CNCCCN(C)C)CC[C@]4(C)C3CC(=O)[C@@]21C (stereo partly drawn) [Compound 3] | 6.5 ± 0.5 | 4 ± 0.2 | 6.7 ± 0.4 | 1 | 3 ± 0.4 | 5.9 ± 0.5 | > 10 | 3 to 6.8 | 2.2 | 1 | 1.1 | 6.8 ± 0.1 | 1.6 | –
4 | COC(=O)CC[C@@H](C)[C@H]1CCC2[C@@H]3CC[C@@H]4C[C@](O)(CN5CCN(C)CC5)CC[C@]4(C)C3CC(=O)[C@@]21C (stereo partly drawn) [Compound 4] | 32.5 ± 1.4 | 3.6 ± 0.7 | 20.4 ± 0.4 | 1.6 | 4.7 ± 0.2 | 23.5 ± 1.7 | > 10 | – | 6.9 | 1.5 | 1.4 | 21.6 ± 2.5 | 9 | –
5 | CCN(CC)CCNC[C@]1(O)CC[C@]2(C)C3CC(=O)[C@@]4(C)C(CC[C@@H]4[C@H](C)CCC(=O)OC)[C@@H]3CC[C@@H]2C1 (stereo partly drawn) [Compound 5] | 7.4 ± 1 | 4.3 ± 0.3 | 20.9 ± 2.1 | 0.4 | 3.3 ± 0.1 | 21.6 ± 3.4 | > 10 | 3.3 to 25.5 | 2.2 | 0.3 | 0.3 | 25.5 ± 0.8 | 1.7 | –
6 | CCN(CC)CCCNC[C@]1(O)CC[C@]2(C)C3CC(=O)[C@@]4(C)C(CC[C@@H]4[C@H](C)CCC(=O)OC)[C@@H]3CC[C@@H]2C1 (stereo partly drawn) [Compound 6] | 6.2 ± 0.4 | 3.7 ± 0.17 | 6.7 ± 0.5 | 0.9 | 1 ± 0.6 | 6.7 ± 0.6 | > 10 | 1 to 6.8 | 6.2 | 0.9 | 0.9 | 6.8 ± 0.3 | 1.7 | –
7 | CCN1CCN(C[C@]2(O)CC[C@]3(C)C4CC(=O)[C@@]5(C)C(CC[C@@H]5[C@H](C)CCC(=O)OC)[C@@H]4CC[C@@H]3C2)CC1 (stereo partly drawn) [Compound 7] | 17.4 ± 1.6 | 3.8 ± 0.3 | 37.8 ± 1.7 | 0.5 | 8.3 ± 1.2 | 28.6 ± 0.5 | > 10 | – | 2 | 0.7 | 0.6 | 23.5 ± 3 | 4.6 | –
8 | COC(=O)CC[C@@H](C)[C@H]1CC[C@H]2[C@@H]3CC[C@@H]4C[C@H](O)CC[C@]4(C)[C@H]3CC(=O)[C@]12C [Compound 11, methyl 3α-hydroxy-12-oxo-5β-cholan-24-oate] | > 100 | 25.7 ± 3.6 | > 100 | – | > 100 | > 100 | 50.9 ± 5.9 | ≥ 25.7 | – | 1 | – | – | >3.9 | –
9 | C[C@H](CCC(=O)O)[C@H]1CC[C@H]2[C@@H]3CC[C@@H]4C[C@H](O)CC[C@]4(C)[C@H]3C[C@H](O)[C@]12C [DCA, deoxycholic acid] | > 100 | > 100 | > 100 | – | 82.9 ± 1.9 | > 100 | – | ≥ 82.9 | – | 1 | – | – | – | 83.6 ± 1.6
